Data set [1] deals with Puccinia recondita f. sp. tritici. Briefly: Puccinia recondita f. sp. tritici / wheat / leaf disc curative (brown rust). It is filed as in vivo. As to conditions: foliar, 200 ppm in the applied formulation, wheat leaf segments cv. Kanzler, applied 1 day after inoculation, 6 to 8 days after application, read-out: disease control compared to untreated control leaf disks. As to the method:
Leaf disks or leaf segments of various plant species are cut from plants grown in a greenhouse. The cut leaf disks or segments are placed in multiwell plates (24-well format) onto water agar. The leaf disks are sprayed with a test solution before (preventative) or after (curative) inoculation. Compounds to be tested are prepared as DMSO solutions (max. 10 mg/ml) which are diluted to the appropriate concentration with 0.025% Tween20 just before spraying. The inoculated leaf disks or segments are incubated under defined conditions (temperature, relative humidity, light, etc.) according to the respective test system. A single evaluation of disease level is carried out 3 to 14 days after inoculation, depending on the pathosystem. Percent disease control relative to the untreated check leaf disks or segments is then calculated.
Wheat leaf segments cv. Kanzler are placed on agar in multiwell plates (24-well format). The leaf segments are then inoculated with a spore suspension of the fungus. Plates were stored in darkness at 19° C. and 75% relative humidity. The formulated test compound diluted in water was applied 1 day after inoculation. The leaf segments were incubated at 19° C. and 75% relative humidity under a light regime of 12 hours light/12 hours darkness in a climate cabinet and the activity of a compound was assessed as percent disease control compared to untreated when an appropriate level of disease damage appears in untreated check leaf segments (6 to 8 days after application).
The following compounds at 200 ppm in the applied formulation give at least 80% disease control in this test when compared to untreated control leaf disks under the same conditions, which show extensive disease development.

Data set [2] concerns Glomerella laqenarium (Colletotrichum laqenarium). Briefly: Glomerella laqenarium (Colletotrichum laqenarium) liquid culture / cucumber / preventative (anthracnose). It is filed as cell-based. The conditions noted are these: 20 ppm in the applied formulation, liquid culture in PDB, 24° C., 3 to 4 days after application, read-out: disease control compared to untreated control (inhibition of growth, photometric). As to the method:
Mycelia fragments or conidia suspensions of a fungus prepared either freshly from liquid cultures of the fungus or from cryogenic storage, are directly mixed into nutrient broth. DMSO solutions of the test compound (max. 10 mg/ml) are diluted with 0.025% Tween20 by a factor of 50 and 10 μl of this solution is pipetted into a microtiter plate (96-well format). The nutrient broth containing the fungal spores/mycelia fragments is then added to give an end concentration of the tested compound. The test plates are incubated in the dark at 24° C. and 96% relative humidity. The inhibition of fungal growth is determined photometrically after 2 to 7 days, depending on the pathosystem, and percent antifungal activity relative to the untreated check is calculated.
Conidia of the fungus from cryogenic storage are directly mixed into nutrient broth (PDB—potato dextrose broth). After placing a (DMSO) solution of test compound into a microtiter plate (96-well format), the nutrient broth containing the fungal spores is added. The test plates are incubated at 24° C. and the inhibition of growth is measured photometrically 3 to 4 days after application.
The following compounds at 20 ppm in the applied formulation give at least 80% disease control in this test when compared to untreated control under the same conditions, which show extensive disease development.

From patent US20200138028A1, “MICROBIOCIDAL OXADIAZOLE DERIVATIVES” (SYNGENTA PARTICIPATIONS AG, priority 2016, published 2020) come the findings set out here.

With `Cc1cc(-c2noc(C(F)(F)F)n2)ccc1NC(=O)c1ccccc1` [Compound 1.2, N-[2-methyl-4-[5-(trifluoromethyl)-1,2,4-oxadiazol-3-yl]phenyl]benzamide], the melting point lay in the range of 173 to 176 °C.

Take `O=C(Nc1ccc(-c2noc(C(F)(F)F)n2)cc1F)C1CC1(F)F` (stereo not drawn) [Compound 1.5, 2,2-difluoro-N-[2-fluoro-4-[5-(trifluoromethyl)-1,2,4-oxadiazol-3-yl]phenyl]cyclopropane carboxamide]: in data set [1], the pest or weed control at 200 ppm was at least 80%. The inhibition at 20 ppm in data set [2] was at least 80%. Take `O=C(Nc1ccc(-c2noc(C(F)(F)F)n2)cc1F)C1CCOC1` (stereo not drawn) [Compound 1.7, N-[2-fluoro-4-[5-(trifluoromethyl)-1,2,4-oxadiazol-3-yl]phenyl]tetrahydrofuran-3-carboxamide]: in data set [1], the pest or weed control at 200 ppm was at least 80%. Moreover, in data set [2], the inhibition at 20 ppm was at least 80%.

On to `Cc1cc(-c2noc(C(F)(F)F)n2)ccc1NC(=O)C1CCCO1` (stereo not drawn) [Compound 1.20, N-[2-methyl-4-[5-(trifluoromethyl)-1,2,4-oxadiazol-3-yl]phenyl]tetrahydrofuran-2-carboxamide], for which the pest or weed control at 200 ppm in data set [1] was at least 80%. Besides, the inhibition at 20 ppm in data set [2] is at least 80%. For the compound `O=C(CC1CC1)Nc1ccc(-c2noc(C(F)(F)F)n2)cc1F` [Compound 1.13, 2-cyclopropyl-N-[2-fluoro-4-[5-(trifluoromethyl)-1,2,4-oxadiazol-3-yl]phenyl]acetamide], the pest or weed control at 200 ppm in data set [1] was at least 80%. In data set [2], the inhibition at 20 ppm was at least 80%. With `Cc1cc(-c2noc(C(F)(F)F)n2)ccc1NC(=O)C1CCOC1` (stereo not drawn) [Compound 1.16, N-[2-methyl-4-[5-(trifluoromethyl)-1,2,4-oxadiazol-3-yl]phenyl]tetrahydrofuran-3-carboxamide], the inhibition at 20 ppm in data set [2] was at least 80%. In the case of `Cc1cc(-c2noc(C(F)(F)F)n2)ccc1NC(=O)C1(C)CC1` [Compound 1.19, 1-methyl-N-[2-methyl-4-[5-(trifluoromethyl)-1,2,4-oxadiazol-3-yl]phenyl]cyclopropane carboxamide], the pest or weed control at 200 ppm in data set [1] was at least 80%. Also, the inhibition at 20 ppm in data set [2] was at least 80%. Regarding `CC1CC1C(=O)Nc1ccc(-c2noc(C(F)(F)F)n2)cc1F` (stereo not drawn) [Compound 1.9, N-[2-fluoro-4-[5-(trifluoromethyl)-1,2,4-oxadiazol-3-yl]phenyl]-2-methyl-cyclopropanecarboxamide], in data set [2], the inhibition at 20 ppm is at least 80%. Take `O=C(Nc1ccc(-c2noc(C(F)(F)F)n2)cc1F)C1CC1` [Compound 1.3, N-[2-fluoro-4-[5-(trifluoromethyl)-1,2,4-oxadiazol-3-yl]phenyl]cyclopropane carboxamide]: the melting point is 160 to 162 °C. In data set [1], the pest or weed control at 200 ppm was at least 80%. For the same compound, the inhibition at 20 ppm in data set [2] is at least 80%. Turning to `O=C(Nc1ccc(-c2noc(C(F)(F)F)n2)cc1F)C1CCC1` [Compound 1.8, N-[2-fluoro-4-[5-(trifluoromethyl)-1,2,4-oxadiazol-3-yl]phenyl] cyclobutanecarboxamide], in data set [2], the inhibition at 20 ppm is at least 80%.

Compound `O=C(Nc1ccc(-c2noc(C(F)(F)F)n2)cc1F)c1ccccc1` [Compound 1.4, N-[2-fluoro-4-[5-(trifluoromethyl)-1,2,4-oxadiazol-3-yl]phenyl]benzamide] registered a melting point of 166 to 175 °C. `O=C(Nc1ccc(-c2noc(C(F)(F)F)n2)cc1F)C1CCCO1` (stereo not drawn) [Compound 1.11, N-[2-fluoro-4-[5-(trifluoromethyl)-1,2,4-oxadiazol-3-yl]phenyl]tetrahydrofuran-2-carboxamide]: the inhibition at 20 ppm in data set [2] is at least 80%.

Turning to `CC1(C(=O)Nc2ccc(-c3noc(C(F)(F)F)n3)cc2F)CC1` [Compound 1.10, N-[2-fluoro-4-[5-(trifluoromethyl)-1,2,4-oxadiazol-3-yl]phenyl]-1-methyl-cyclopropanecarboxamide], the pest or weed control at 200 ppm in data set [1] was at least 80%. Further, the inhibition at 20 ppm in data set [2] is at least 80%. For the compound `Cc1cc(-c2noc(C(F)(F)F)n2)ccc1NC(=O)C1CC1` [Compound 1.1, N-[2-methyl-4-[5-(trifluoromethyl)-1,2,4-oxadiazol-3-yl]phenyl]cyclopropane carboxamide], the melting point fell in the range of 185 to 196 °C. Regarding `N#CC1(C(=O)Nc2ccc(-c3noc(C(F)(F)F)n3)cc2F)CC1` [Compound 1.12, 1-cyano-N-[2-fluoro-4-[5-(trifluoromethyl)-1,2,4-oxadiazol-3-yl]phenyl]cyclopropane carboxamide], in data set [1], the pest or weed control at 200 ppm is at least 80%. Moreover, in data set [2], the inhibition at 20 ppm was at least 80%.

Usually melting point stands for the temperature, or range, at which the solid turns liquid. In general, inhibition refers to the percentage by which the read-out fell short of the control.
